Data published in the supplement of paper PMC10307832.

Assays:
Assay in all cases: relative viability (nuclei count vs DMSO), 5 days (fraction); higher = more cells survive
[1] = compound: CCN(CCO)CCCC(C)Nc1ccnc2cc(Cl)ccc12 [Hydroxychloroquine] + C[C@]1(O)C[C@@H](c2nc(-c3ccc4ccc(-c5ccccc5)nc4c3)c3c(N)nccn32)C1 [Linsitinib] (partner 1 µM)
Outline: (§1)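 Cells from lung cancer lines were seeded into 1536-well plates and, one day later, dosed by pin tool. Treatments were either a single drug or a fixed dose of an anchor drug with five library-drug doses (not always all listed) in √10 steps. After 5 days, nuclei were stained in a one-step fixation (final 0.05% Triton X-100, 1% formaldehyde, 1 ug/ml Hoechst) and counted on 4× images, and relative viability is the treated-to-vehicle nuclei ratio, as the median of duplicate plates.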

[2] = compound: CCN(CCO)CCCC(C)Nc1ccnc2cc(Cl)ccc12 [Hydroxychloroquine] + CC1(C)CCC(c2ccc(Cl)cc2)=C(CN2CCN(c3ccc(C(=O)NS(=O)(=O)c4ccc(N[C@H](CCN5CCOCC5)CSc5ccccc5)c(S(=O)(=O)C(F)(F)F)c4)cc3)CC2)C1 [Navitoclax] (partner 0.5 µM)
Outline: as §1

[3] = compound: CCN(CCO)CCCC(C)Nc1ccnc2cc(Cl)ccc12 [Hydroxychloroquine] + O=C(CCCCCCC(=O)Nc1ccccc1)NO [Vorinostat] (partner 1 µM)
Outline: as §1

[4] = compound: CCN(CCO)CCCC(C)Nc1ccnc2cc(Cl)ccc12 [Hydroxychloroquine] + Nc1nc2[nH]cc(CCc3ccc(C(=O)N[C@@H](CCC(=O)O)C(=O)O)cc3)c2c(=O)[nH]1 [Pemetrexed] (partner 0.2 µM)
Outline: as §1

Cell Line	relative viability ([1]; first compound 0.5 µM)	relative viability ([1]; first compound 1.581 µM)	relative viability ([1]; first compound 5 µM)	relative viability ([1]; first compound 15.81 µM)	relative viability ([1]; first compound 50 µM)	relative viability ([2]; first compound 0.5 µM)	relative viability ([2]; first compound 1.581 µM)	relative viability ([2]; first compound 5 µM)	relative viability ([2]; first compound 15.81 µM)	relative viability ([2]; first compound 50 µM)	relative viability ([3]; first compound 0.5 µM)	relative viability ([3]; first compound 1.581 µM)	relative viability ([3]; first compound 5 µM)	relative viability ([3]; first compound 15.81 µM)	relative viability ([3]; first compound 50 µM)	relative viability ([4]; first compound 0.5 µM)	relative viability ([4]; first compound 1.581 µM)	relative viability ([4]; first compound 5 µM)	relative viability ([4]; first compound 15.81 µM)	relative viability ([4]; first compound 50 µM)
201T	1.07	0.987	1.07	1	1.13	1.22	1.19	1.19	1.19	1.22	0.954	0.943	1.02	0.929	1.07	0.346	0.331	0.338	0.307	0.339
A-427	1.13	1.05	1.13	1.09	1.16	0.875	0.776	0.993	0.919	1.04	0.919	0.826	0.834	0.807	0.79	0.948	1.05	0.926	0.838	1.01
ABC-1	1	0.698	0.959	0.759	0.879	–	–	–	–	–	1.33	1.19	1.11	0.934	1.19	–	–	–	–	–
BEN	0.87	0.929	0.872	0.973	1.15	0.051	0.0669	0.0688	0.0612	0.0766	0.632	0.563	0.638	0.635	0.608	0.928	0.719	0.733	0.855	0.684
CAL-12T	0.916	0.75	0.773	0.866	0.886	1.06	1.22	1.21	1.23	1.23	0.865	0.725	0.684	0.873	0.979	1.15	1.18	1.31	1.27	1.33
COR-L23	0.989	0.872	0.947	0.997	1.02	1.03	0.926	1.24	1.31	1.12	0.409	0.455	0.545	0.453	0.415	0.192	0.189	0.21	0.211	0.186
COR-L 105	1.08	1	0.905	0.851	0.814	0.595	0.747	0.778	0.816	0.594	0.87	0.807	0.628	0.743	0.804	1.12	1.01	0.967	1.05	1.08
Calu-6	0.864	0.881	1.11	0.938	0.942	0.852	0.883	0.836	0.731	0.823	–	–	–	–	–	–	–	–	–	–
ChaGo-K-1	–	–	–	–	–	1.22	0.685	0.687	1.06	1	0.806	0.785	0.778	0.759	0.711	0.417	0.259	0.291	0.262	0.276
EKVX	0.929	1.01	1.09	0.955	1.05	1.1	0.919	1.07	1.04	0.943	0.688	0.609	0.677	0.767	0.648	0.385	0.394	0.32	0.385	0.423
EMC-BAC-2	0.817	0.772	0.87	0.82	0.852	1.17	1.23	1.17	1.17	1.36	0.492	0.443	0.375	0.425	0.328	0.49	0.439	0.434	0.313	0.411
EPLC-272H	1.13	1	1.2	1.12	1.25	1.19	1.07	1.28	1.24	1.29	–	0.359	0.433	0.392	0.488	–	0.331	0.325	0.341	0.352
H3255	0.946	0.999	0.976	0.944	0.982	0.56	0.422	0.546	0.522	0.635	0.741	0.715	0.716	0.858	0.762	0.566	0.603	0.543	0.586	0.477
HARA	1.01	0.993	0.996	0.997	0.913	1.14	1.15	1.14	1.2	1.12	0.516	0.482	0.55	0.603	0.594	0.286	0.231	0.233	0.263	0.251
HCC-15	0.815	0.861	0.879	0.912	0.898	0.72	0.669	0.702	0.758	0.714	0.796	0.828	0.902	0.9	0.775	0.231	0.241	0.205	0.226	0.231
HCC-44	0.634	0.682	0.723	0.748	0.774	1.02	1	0.964	0.994	1.06	1.1	1.09	1.14	1.1	1.14	0.635	0.709	0.653	0.655	0.659
HCC-78	0.49	0.728	0.304	0.516	0.455	0.865	0.82	0.993	0.768	0.777	0.632	0.381	0.438	0.446	0.509	0.927	0.973	0.902	0.891	0.959
HCC-366	0.573	0.769	0.613	0.627	0.796	1.09	1.04	0.963	1.07	1.16	0.339	0.232	0.301	0.338	0.434	0.157	0.151	0.14	0.18	0.177
HCC-827	1.01	0.927	0.922	0.956	0.977	0.941	1.02	1.03	1.1	1.02	0.811	0.873	0.786	0.759	0.571	0.225	0.275	0.259	0.259	0.23
HOP-62	0.95	0.873	1.15	0.868	0.987	0.962	1.13	1.1	1.03	1.13	0.584	0.628	0.573	0.574	0.69	0.331	0.312	0.33	0.344	0.343

Cell Line	relative viability ([1]; first compound 0.5 µM)	relative viability ([1]; first compound 1.581 µM)	relative viability ([1]; first compound 5 µM)	relative viability ([1]; first compound 15.81 µM)	relative viability ([1]; first compound 50 µM)	relative viability ([2]; first compound 0.5 µM)	relative viability ([2]; first compound 1.581 µM)	relative viability ([2]; first compound 5 µM)	relative viability ([2]; first compound 15.81 µM)	relative viability ([2]; first compound 50 µM)	relative viability ([3]; first compound 0.5 µM)	relative viability ([3]; first compound 1.581 µM)	relative viability ([3]; first compound 5 µM)	relative viability ([3]; first compound 15.81 µM)	relative viability ([3]; first compound 50 µM)	relative viability ([4]; first compound 0.5 µM)	relative viability ([4]; first compound 1.581 µM)	relative viability ([4]; first compound 5 µM)	relative viability ([4]; first compound 15.81 µM)	relative viability ([4]; first compound 50 µM)
IA-LM	0.569	0.281	0.66	0.383	0.695	0.764	0.79	0.832	0.798	0.847	1.02	1.13	1.03	–	1.06	–	–	–	–	–
LC-2-ad	0.92	0.782	0.93	0.863	0.818	0.337	0.332	0.478	0.416	0.405	0.707	0.691	0.694	0.702	0.697	0.272	0.273	0.244	0.261	0.282
LCLC-97TM1	0.2	0.189	0.215	0.172	0.173	0.432	0.619	0.656	0.517	0.397	0.778	0.742	0.772	0.766	0.797	0.199	0.226	0.169	0.179	0.175
LCLC-103H	1.16	1.08	1.07	1.01	1.16	–	–	–	–	–	0.859	0.718	0.752	0.829	0.793	0.439	0.504	0.368	0.455	0.473
LK-2	0.473	0.438	0.843	0.607	0.696	0.777	0.763	0.809	0.914	0.632	0.318	0.274	0.248	0.299	0.294	0.299	0.261	0.256	0.274	0.206
LOU-NH91	0.907	0.811	0.981	0.937	0.946	0.679	0.543	0.742	0.676	0.826	0.89	0.72	0.88	0.933	0.868	0.359	0.413	0.451	0.386	0.427
NCI-H358	0.795	0.704	0.712	0.69	0.743	–	–	–	–	–	0.695	0.731	0.72	0.673	0.655	0.164	0.166	0.179	0.161	0.179
NCI-H522	–	–	–	–	–	–	–	–	–	–	0.832	–	0.882	0.904	1.01	1.02	–	1.39	0.974	0.98
NCI-H650	0.907	0.802	–	0.828	0.818	–	–	–	–	–	0.478	0.432	0.397	0.42	0.478	0.979	0.868	0.966	1.06	0.889
NCI-H661	0.537	0.361	0.564	0.542	0.598	–	–	–	–	–	0.827	0.828	0.782	0.802	0.782	0.962	0.904	0.91	0.877	0.872
NCI-H727	0.279	0.276	0.306	0.305	0.357	0.456	0.399	0.482	0.357	0.406	1.07	1.22	1.23	0.969	1.33	–	–	–	–	–
NCI-H1563	1.03	1.04	1.18	1.06	1.17	–	–	–	–	–	–	–	–	–	–	0.888	0.692	0.724	0.78	0.875
NCI-H1648	–	–	–	–	–	–	–	–	–	–	0.458	0.44	0.422	0.68	0.503	0.844	0.785	0.734	0.859	0.694
NCI-H1650	–	–	–	–	–	1.06	1.06	1.24	1.04	1.29	0.48	0.593	0.634	0.663	0.608	0.337	0.331	0.342	0.397	0.346
NCI-H1703	0.601	0.418	0.8	0.614	1.09	1.08	0.934	1.02	1.02	1.29	–	–	–	–	–	–	–	–	–	–
NCI-H1792	0.534	0.588	0.583	0.536	0.56	0.509	0.607	0.686	0.367	0.451	–	–	–	–	–	0.694	0.831	0.755	0.641	0.859
NCI-H2170	–	–	–	–	–	0.54	0.695	0.631	0.644	0.549	0.784	0.839	0.829	0.878	0.95	0.341	0.265	0.255	0.233	0.29
NCI-H2342	–	–	–	–	–	–	–	–	–	–	0.713	0.812	0.812	0.813	0.848	0.744	0.695	0.75	0.81	0.906
SW 900	–	–	–	–	–	–	–	–	–	–	0.532	0.535	0.504	0.382	0.505	0.43	0.47	0.448	0.457	0.444
